Assay results taken from patent US20130028986A1, “Pharmaceutical Compositions” (SABAREP LIMITED, priority 2005, published 2013).

Tested on: skin or epidermal barrier (skin treated with clobetasol propionate)
Assay: Topical corticosteroid induced protease skin barrier damage model (tape stripping, TEWL)
Assay type: in vivo, human (volunteer)
Details: for rate of TEWL increase during tape stripping: compared to control and vehicle alone, up to 20 tape strips
Description: Topical glucocorticoids (corticosteroids), which are used in the treatment of atopic dermatitis, damage the skin barrier and cause changes to the lipids within the epidermis, and a reduction in the number corneodesmosomes holding the corneocytes together. […] Therefore, skin that has been pretreated with gluticocorticoids can provide a good model in which to test the efficacy of compounds for their capacity to restore the skin or epidermal barrier and to be useful in the treatment of dermato logical conditions that compromise the skin or epidermal barrier, particularly those involving an abnormal decrease in the cell-to-cell adhesion between epithelial cells (in particular between corneocytes) such as atopic eczema or dermatitis, sebarrhoeic eczema, irritant contact dermatitis, allergic contact dermatitis and other sensitive skin conditions. […] The techniques disclosed by Kao et al. provide a measure of barrier integrity and corneocyte cohesion (any increases in TEWL are indicative of a loss in barrier function and increases in total protein removed by the skin strips are the result of a loss of intercellular cohesion, and vice versa). The methods employed by Kao were therefore used in the following examples. The TEWL measurements were taken using an “Aquaflux AF 102” electrolytic water analyser (Available from Biox Systems Ltd, Southwark Campus, 103 Borough Road, London SE1 0AA, UK) in the manner described in Berg et al. (Berg, E. P. Pascut, F. C, Ciortea, L. L, O'Driscoll, D., Xiao, P. and Imhof, R. E. (2002), Aquaflux—A new instrument for water vapour flux density measurement Proceedings of the 4th International Symposium on Humidity and Moisture, Centre for Measurement Standards, ITRI, RoC, ISBN 957-774-423-0, pp. 288-95) and Ciortea et al. (Ciortea, L. I. O'Driscoll, D., Berg, E. P., Xiao, P., Pascut, F. C. and Imhof, R. E. (2002), New methods for measuring water desorption and vapour permeation rates in membranes Proceedings of the 4th International Symposium on Humidity and Moisture, Centre for Measurement Standards, ITRI, RoC, ISBN 957-774-423-0, pp. 288-95).
Microfine zinc oxide (available from BASF Aktiengesellschaft, 67056 Ludwigshafen, Germany, under the trade mark Z-Cote®, item no. 55082355, or from Univar, Basildon, Essex, UK, as item no. 76011010; see also: Z-Cote®, BASF; Mitchnick, M. A., Fairhurst, D. and Pinnell, S. R. (1999) J Am Acad Dermatol 40: 85-90) (25%) in light liquid paraffin was applied twice a day to a volunteer's left forearm for 4 days; their right forearm received light liquid paraffin only. One fingertip unit of clobetasol propionate (a potent corticosteroid) was then applied twice a day to the study areas for 3 days. TEWL was then measured at base line and following the removal of 4, 8, 12 and 16 tape strips.
Microfine zinc oxide, 5 and 15%, in light liquid paraffin was applied twice a day to a volunteer's the left bicep and left forearm for 4 days, respectively; the right bicep received light liquid paraffin only. […] TEWL was then measured at base line and following the removal of 4, 8, 12 and 16 tape strips. […]
Four finger dips of 12 mg/ml zinc stearate in light liquid paraffin were applied to the right forearm for 9 days, twice daily. […] On day 10, TEWL was measured at base line following the removal of 4, 8, 12 and 16 tape strips. […]

For `[O-2].[Zn+2]` [Microfine zinc oxide, zinc oxide], the “reduction in TEWL following the removal of 16 tape strips” value (Example Ia, FIG. 2, 25% in light liquid paraffin twice a day for 4 days on left forearm, then clobetasol propionate twice a day for 3 days, compared with light liquid paraffin only) was 37.5%, the “protective effect (TEWL at base line and after 4, 8, 12 and 16 tape strips)” value (Example Ib, FIG. 3, 5 and 15% in light liquid paraffin twice a day for 4 days, clobetasol propionate twice a day for 3 days, compared with light liquid paraffin only) was “dose-dependant response” and the “rate of TEWL increase during tape stripping” value (Example Ie, FIG. 6, zinc oxide 25% (alone or with 12 mg/ml palmitic acid) in PEG400/ethanol (7:3) 6 times a day for 4 days, clobetasol propionate 3 times over 48 hours) was “significantly reduced”.
With `CCCCCCCCCCCCCCCC(=O)O` [palmitic acid, Hexadecanoic acid] the “rate of TEWL increase during tape stripping” value (Example Id, FIG. 5, 12 mg/ml in PEG400/ethanol (7:3) 6 times a day for 4 days, then clobetasol propionate 3 times over 24 hours) was “significantly reduced”.
zinc stearate was tested, and the “protection against the effects of clobetasol (TEWL at base line and after 4, 8, 12 and 16 tape strips)” value (Example Ic, FIG. 4, 12 mg/ml in light liquid paraffin twice daily for 9 days on right forearm, clobetasol propionate twice a day on days 6 to 9, TEWL on day 10) was “can also protect against the effects of clobetasol”.
